Test results as given in the OligoGym collection.
HELM strings list units from the 5' end as sugar, base in round brackets, then linkage (d deoxyribose, r ribose, m 2'-O-methyl, p phosphodiester). Strings are as the collection lists them; they lack the last nucleoside at the 3' end of the tested compound. [moe] = 2'-O-(2-methoxyethyl) (MOE); [sp] = phosphorothioate linkage; [m5C] = 5-methylcytosine

biological target: UBE3A-ATS; assay: mouse, dose not given; settings: ASO

| Substance | 3 h FOB score [score 0-7] |
| --- | --- |
| RNA1{[moe](T)[sp].[moe](T)p.[moe]([m5C])p.[moe](T)p.[moe](T)p.d(G)[sp].d([m5C])[sp].d(T)[sp].d(G)[sp].d(A)[sp].d(T)[sp].d([m5C])[sp].d(A)[sp].d([m5C])[sp].d(A)[sp].[moe](T)p.[moe](T)p.[moe](A)[sp].[moe]([m5C])}$$$$ (last 3' nucleoside missing) | 0 |
| RNA1{[moe](T)[sp].[moe](T)p.[moe]([m5C])p.[moe](T)p.[moe]([m5C])p.d(A)[sp].d([m5C])[sp].d([m5C])[sp].d(T)[sp].d(A)[sp].d(G)[sp].d(G)[sp].d([m5C])[sp].d(T)[sp].d(G)[sp].[moe](G)p.[moe](G)p.[moe]([m5C])[sp].[moe]([m5C])}$$$$ (last 3' nucleoside missing) | 2.8 |
| RNA1{[moe](T)[sp].[moe](T)p.[moe]([m5C])p.[moe]([m5C])p.[moe]([m5C])p.d(A)[sp].d(T)[sp].d(T)[sp].d([m5C])[sp].d(A)[sp].d(G)[sp].d([m5C])[sp].d(A)[sp].d([m5C])[sp].d(T)[sp].[moe](T)p.[moe](A)p.[moe](G)[sp].[moe](G)}$$$$ (last 3' nucleoside missing) | 3.3 |
| RNA1{[moe](T)[sp].[moe]([m5C])[sp].[moe]([m5C])[sp].[moe](T)[sp].[moe](T)[sp].d(T)[sp].d(A)[sp].d(G)[sp].d([m5C])[sp].d(A)[sp].d(T)[sp].d(T)[sp].d(T)[sp].d([m5C])[sp].d(T)[sp].[moe](A)[sp].[moe](T)[sp].[moe](T)[sp].[moe](A)}$$$$ (last 3' nucleoside missing) | 6.5 |
| RNA1{[moe](T)[sp].[moe]([m5C])p.[moe](A)p.[moe](A)[sp].d([m5C])[sp].d([m5C])[sp].d(A)[sp].d(A)[sp].d(T)[sp].d(T)[sp].d(T)[sp].d(G)[sp].[moe]([m5C])p.[moe](T)p.[moe](A)p.[moe](T)[sp].[moe](T)}$$$$ (last 3' nucleoside missing) | 0.7 |
| RNA1{[moe](T)[sp].[moe]([m5C])p.[moe](A)p.[moe](A)p.[moe]([m5C])[sp].d([m5C])[sp].d(A)[sp].d(A)[sp].d(T)[sp].d(T)[sp].d(T)[sp].d(G)[sp].d([m5C])[sp].[moe](T)p.[moe](A)p.[moe](T)[sp].[moe](T)}$$$$ (last 3' nucleoside missing) | 3 |
| RNA1{[moe](T)[sp].[moe]([m5C])p.[moe](A)p.[moe](A)p.[moe]([m5C])p.[moe]([m5C])[sp].d(A)[sp].d(A)[sp].d(T)[sp].d(T)[sp].d(T)[sp].d(G)[sp].d([m5C])[sp].d(T)[sp].[moe](A)p.[moe](T)[sp].[moe](T)}$$$$ (last 3' nucleoside missing) | 3 |
| RNA1{[moe](T)[sp].[moe]([m5C])p.[moe](A)p.[moe](A)p.[moe]([m5C])p.d(T)[sp].d(A)[sp].d(T)[sp].d(T)[sp].d(T)[sp].d([m5C])[sp].d(T)[sp].d(A)[sp].d(T)[sp].d([m5C])[sp].[moe](A)p.[moe](A)p.[moe](G)[sp].[moe](G)}$$$$ (last 3' nucleoside missing) | 0 |
| RNA1{[moe](T)[sp].[moe]([m5C])p.[moe](A)p.[moe](A)p.[moe]([m5C])p.d([m5C])[sp].d(A)[sp].d(A)[sp].d(T)[sp].d(T)[sp].d(T)[sp].d(G)[sp].d([m5C])[sp].d(T)[sp].d(A)[sp].[moe](T)p.[moe](T)p.[moe]([m5C])[sp].[moe](A)}$$$$ (last 3' nucleoside missing) | 2 |
| RNA1{[moe](T)[sp].[moe]([m5C])p.[moe](A)p.[moe](G)[sp].d(T)[sp].d(T)[sp].d(A)[sp].d(G)[sp].d(G)[sp].d(T)[sp].d(T)[sp].d(A)[sp].[moe](G)p.[moe](T)p.[moe](G)p.[moe]([m5C])[sp].[moe](A)}$$$$ (last 3' nucleoside missing) | 2.3 |
| RNA1{[moe](T)[sp].[moe]([m5C])p.[moe](A)p.[moe](G)p.[moe](A)p.d(T)[sp].d(T)[sp].d([m5C])[sp].d([m5C])[sp].d(T)[sp].d(A)[sp].d(A)[sp].d(A)[sp].d(T)[sp].d(A)[sp].[moe]([m5C])p.[moe](G)p.[moe]([m5C])[sp].[moe](A)}$$$$ (last 3' nucleoside missing) | 0 |
| RNA1{[moe](T)[sp].[moe]([m5C])p.[moe](A)p.[moe](G)p.[moe](T)[sp].d(T)[sp].d(A)[sp].d(G)[sp].d(G)[sp].d(T)[sp].d(T)[sp].d(A)[sp].d(G)[sp].[moe](T)p.[moe](G)p.[moe]([m5C])[sp].[moe](A)}$$$$ (last 3' nucleoside missing) | 4.3 |
| RNA1{[moe](T)[sp].[moe]([m5C])p.[moe](A)p.[moe](G)p.[moe](T)p.[moe](T)[sp].d(A)[sp].d(G)[sp].d(G)[sp].d(T)[sp].d(T)[sp].d(A)[sp].d(G)[sp].d(T)[sp].[moe](G)p.[moe]([m5C])[sp].[moe](A)}$$$$ (last 3' nucleoside missing) | 3 |
| RNA1{[moe](T)[sp].[moe]([m5C])p.[moe](A)p.[moe](G)p.[moe](T)p.[moe](T)p.d(A)[sp].d(G)[sp].d(G)[sp].d(T)[sp].d(T)[sp].d(A)[sp].d(G)[sp].d(T)[sp].d(G)[sp].d([m5C])[sp].[moe](A)p.[moe]([m5C])[sp].[moe](A)}$$$$ (last 3' nucleoside missing) | 4.8 |
| RNA1{[moe](T)[sp].[moe]([m5C])p.[moe](A)p.[moe](G)p.[moe](T)p.d(T)[sp].d(A)[sp].d(G)[sp].d(G)[sp].d(T)[sp].d(T)[sp].d(A)[sp].d(G)[sp].d(T)[sp].d(G)[sp].[moe]([m5C])p.[moe](A)p.[moe]([m5C])[sp].[moe](A)}$$$$ (last 3' nucleoside missing) | 5 |
| RNA1{[moe](T)[sp].[moe]([m5C])p.[moe](A)p.[moe](G)p.[moe](T)p.d(T)[sp].d(A)[sp].d(G)[sp].d(T)[sp].d([m5C])[sp].d(A)[sp].d(G)[sp].d(G)[sp].d(T)[sp].d(T)[sp].[moe](A)p.[moe](G)p.[moe](G)[sp].[moe](G)}$$$$ (last 3' nucleoside missing) | 4.2 |
| RNA1{[moe](T)[sp].[moe]([m5C])p.[moe](A)p.[moe](G)p.[moe]([m5C])p.d(A)[sp].d([m5C])[sp].d(T)[sp].d(T)[sp].d(A)[sp].d(G)[sp].d(G)[sp].d(T)[sp].d(A)[sp].d(G)[sp].[moe](T)p.[moe](T)p.[moe]([m5C])[sp].[moe](A)}$$$$ (last 3' nucleoside missing) | 5 |
| RNA1{[moe](T)[sp].[moe]([m5C])p.[moe](A)p.[moe](G)p.d(T)[sp].d(T)[sp].d(A)[sp].d(G)[sp].d(G)[sp].d(T)[sp].d(T)[sp].d(A)[sp].d(G)[sp].d(T)[sp].[moe](G)p.[moe]([m5C])p.[moe](A)p.[moe]([m5C])[sp].[moe](A)}$$$$ (last 3' nucleoside missing) | 4 |
| RNA1{[moe](T)[sp].[moe]([m5C])p.[moe](A)p.[moe](T)[sp].d([m5C])[sp].d(T)[sp].d([m5C])[sp].d(G)[sp].d(G)[sp].d(G)[sp].d(T)[sp].d(A)[sp].[moe](T)p.[moe](A)p.[moe](T)p.[moe](A)[sp].[moe](A)}$$$$ (last 3' nucleoside missing) | 5.3 |
| RNA1{[moe](T)[sp].[moe]([m5C])p.[moe](A)p.[moe](T)p.[moe](G)p.d(T)[sp].d(G)[sp].d([m5C])[sp].d(A)[sp].d(T)[sp].d(A)[sp].d([m5C])[sp].d([m5C])[sp].d([m5C])[sp].d(A)[sp].[moe](G)p.[moe](G)p.[moe](G)[sp].[moe](T)}$$$$ (last 3' nucleoside missing) | 1 |
| RNA1{[moe](T)[sp].[moe]([m5C])p.[moe](A)p.[moe](T)p.[moe](T)p.d(A)[sp].d(T)[sp].d(T)[sp].d([m5C])[sp].d(T)[sp].d([m5C])[sp].d(T)[sp].d(A)[sp].d(G)[sp].d(T)[sp].[moe](G)p.[moe]([m5C])p.[moe]([m5C])[sp].[moe](T)}$$$$ (last 3' nucleoside missing) | 1 |
| RNA1{[moe](T)[sp].[moe]([m5C])p.[moe](A)p.[moe](T)p.[moe]([m5C])[sp].d(T)[sp].d([m5C])[sp].d(G)[sp].d(G)[sp].d(G)[sp].d(T)[sp].d(A)[sp].d(T)[sp].[moe](A)p.[moe](T)p.[moe](A)[sp].[moe](A)}$$$$ (last 3' nucleoside missing) | 3 |
| RNA1{[moe](T)[sp].[moe]([m5C])p.[moe](A)p.[moe](T)p.[moe]([m5C])p.[moe](T)[sp].d([m5C])[sp].d(G)[sp].d(G)[sp].d(G)[sp].d(T)[sp].d(A)[sp].d(T)[sp].d(A)[sp].[moe](T)p.[moe](A)[sp].[moe](A)}$$$$ (last 3' nucleoside missing) | 2.3 |
| RNA1{[moe](T)[sp].[moe]([m5C])p.[moe](A)p.[moe](T)p.[moe]([m5C])p.[moe](T)p.d([m5C])[sp].d(G)[sp].d(G)[sp].d(G)[sp].d(T)[sp].d(A)[sp].d(T)[sp].d(A)[sp].d(T)[sp].d(A)[sp].[moe](A)p.[moe](A)[sp].[moe](T)}$$$$ (last 3' nucleoside missing) | 2 |
| RNA1{[moe](T)[sp].[moe]([m5C])p.[moe](A)p.[moe](T)p.[moe]([m5C])p.d(T)[sp].d([m5C])[sp].d(G)[sp].d(G)[sp].d(G)[sp].d(T)[sp].d(A)[sp].d(T)[sp].d(A)[sp].d(T)[sp].[moe](A)p.[moe](A)p.[moe](A)[sp].[moe](T)}$$$$ (last 3' nucleoside missing) | 3.3 |
| RNA1{[moe](T)[sp].[moe]([m5C])p.[moe](A)p.[moe](T)p.d([m5C])[sp].d(T)[sp].d([m5C])[sp].d(G)[sp].d(G)[sp].d(G)[sp].d(T)[sp].d(A)[sp].d(T)[sp].d(A)[sp].[moe](T)p.[moe](A)p.[moe](A)p.[moe](A)[sp].[moe](T)}$$$$ (last 3' nucleoside missing) | 4 |
| RNA1{[moe](T)[sp].[moe]([m5C])p.[moe](A)p.[moe]([m5C])[sp].d([m5C])[sp].d(A)[sp].d(T)[sp].d(T)[sp].d(T)[sp].d(T)[sp].d(G)[sp].d(A)[sp].[moe]([m5C])p.[moe]([m5C])p.[moe](T)p.[moe](T)[sp].[moe]([m5C])}$$$$ (last 3' nucleoside missing) | 0.3 |
